# Measured values: ChEMBL document CHEMBL5465560, “Selectivity Literature for EUbOPEN Chemogenomic Library” (2024)
# Experiments:
# [1] = biological target: T1, Ephrin type-B receptor 6 (Homo sapiens) (UniProt O15197); assay: Selectivity interaction (KinomeScan (DiscoverX)) EUB0001049a EPHB6; settings: at 1 µM
# T1 sequence (whole entry): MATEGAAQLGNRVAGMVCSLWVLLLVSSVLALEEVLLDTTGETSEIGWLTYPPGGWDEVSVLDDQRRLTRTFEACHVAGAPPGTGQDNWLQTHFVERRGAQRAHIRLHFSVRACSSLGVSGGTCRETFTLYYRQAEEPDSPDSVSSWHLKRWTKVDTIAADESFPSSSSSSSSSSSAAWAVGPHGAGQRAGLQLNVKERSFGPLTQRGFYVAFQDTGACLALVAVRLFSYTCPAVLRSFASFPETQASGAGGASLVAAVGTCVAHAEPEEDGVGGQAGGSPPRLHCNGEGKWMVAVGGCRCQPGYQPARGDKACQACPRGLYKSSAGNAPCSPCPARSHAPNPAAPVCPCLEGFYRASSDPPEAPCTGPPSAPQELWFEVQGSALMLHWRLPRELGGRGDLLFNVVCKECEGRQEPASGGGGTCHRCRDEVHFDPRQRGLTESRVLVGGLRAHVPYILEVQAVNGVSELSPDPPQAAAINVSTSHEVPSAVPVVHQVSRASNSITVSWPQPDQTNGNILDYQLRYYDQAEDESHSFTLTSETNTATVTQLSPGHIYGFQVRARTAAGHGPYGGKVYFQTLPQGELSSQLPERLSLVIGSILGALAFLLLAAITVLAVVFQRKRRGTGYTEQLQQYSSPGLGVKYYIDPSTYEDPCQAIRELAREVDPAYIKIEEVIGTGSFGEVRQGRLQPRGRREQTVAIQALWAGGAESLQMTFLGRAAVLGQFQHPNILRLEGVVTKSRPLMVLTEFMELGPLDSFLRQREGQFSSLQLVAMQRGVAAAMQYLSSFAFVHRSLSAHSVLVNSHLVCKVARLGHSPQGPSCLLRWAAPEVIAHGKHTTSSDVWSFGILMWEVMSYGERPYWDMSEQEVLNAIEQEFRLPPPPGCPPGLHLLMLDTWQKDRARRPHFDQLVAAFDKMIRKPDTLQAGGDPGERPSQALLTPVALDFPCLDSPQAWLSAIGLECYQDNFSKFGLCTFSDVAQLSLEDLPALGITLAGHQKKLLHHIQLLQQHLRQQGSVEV
# [2] = biological target: T2, MAP kinase-activated protein kinase 5 (Homo sapiens) (UniProt Q8IW41); assay: Selectivity interaction (Ambit KINOMEscan and KiNATiv profiling in Jurkat cells) EUB0000090b MAPKAPK5; assay type: cell-based; settings: at 1 µM
# T2 sequence (whole entry): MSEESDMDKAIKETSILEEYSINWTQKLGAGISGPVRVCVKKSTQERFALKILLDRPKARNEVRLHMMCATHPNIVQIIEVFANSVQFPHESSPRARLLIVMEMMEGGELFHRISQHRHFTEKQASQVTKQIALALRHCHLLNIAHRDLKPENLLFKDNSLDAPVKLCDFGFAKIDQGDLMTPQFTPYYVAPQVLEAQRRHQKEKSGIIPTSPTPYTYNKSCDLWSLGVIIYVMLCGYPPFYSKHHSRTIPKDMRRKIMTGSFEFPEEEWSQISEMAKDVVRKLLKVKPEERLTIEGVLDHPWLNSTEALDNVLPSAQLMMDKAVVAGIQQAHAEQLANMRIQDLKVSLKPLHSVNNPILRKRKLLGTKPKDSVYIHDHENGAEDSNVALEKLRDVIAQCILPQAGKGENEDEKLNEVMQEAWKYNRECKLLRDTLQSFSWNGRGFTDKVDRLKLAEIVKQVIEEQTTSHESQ
# [3] = biological target: Tyrosine-protein kinase ABL1 (Homo sapiens, UniProt P00519); assay: Selectivity interaction (ActivX KiNativ screen (kinase selectivity in THP-1 cell lysates)) EUB0000639a ABL1; assay type: subcellular; settings: lysate, at 0.2 µM
# [4] = biological target: Phosphatidylinositol 4-phosphate 3-kinase C2 domain-containing subunit beta (Homo sapiens) (UniProt O00750); assay: Selectivity interaction (KinomeScan (DiscoverX)) EUB0000595a PIK3C2B; settings: at 10 µM
# [5] = biological target: High affinity nerve growth factor receptor (Homo sapiens, UniProt P04629); assay: Selectivity interaction (KinomeScan (DiscoverX)) EUB0000229b NTRK1; settings: at 10 µM
# [6] = biological target: Serine/threonine-protein kinase PLK1 (Homo sapiens, UniProt P53350); assay: Selectivity interaction (KinomeScan (DiscoverX)) EUB0001079a PLK1; settings: at 1 µM
# [7] = biological target: Interleukin-1 receptor-associated kinase 1 (Homo sapiens) (UniProt P51617); assay: Selectivity interaction (ProQinase) EUB0000171b IRAK1
# [8] = biological target: Casein kinase I isoform delta (Homo sapiens, UniProt P48730); assay: Selectivity interaction (KinomeScan (DiscoverX)) EUB0000045b CSNK1D
# [9] = biological target: T3, Serine/threonine-protein kinase BRSK2 (Homo sapiens) (UniProt Q8IWQ3); assay: Selectivity interaction (KinomeScan (DiscoverX)) EUB0000607a BRSK2; settings: at 10 µM
# T3 sequence (whole entry): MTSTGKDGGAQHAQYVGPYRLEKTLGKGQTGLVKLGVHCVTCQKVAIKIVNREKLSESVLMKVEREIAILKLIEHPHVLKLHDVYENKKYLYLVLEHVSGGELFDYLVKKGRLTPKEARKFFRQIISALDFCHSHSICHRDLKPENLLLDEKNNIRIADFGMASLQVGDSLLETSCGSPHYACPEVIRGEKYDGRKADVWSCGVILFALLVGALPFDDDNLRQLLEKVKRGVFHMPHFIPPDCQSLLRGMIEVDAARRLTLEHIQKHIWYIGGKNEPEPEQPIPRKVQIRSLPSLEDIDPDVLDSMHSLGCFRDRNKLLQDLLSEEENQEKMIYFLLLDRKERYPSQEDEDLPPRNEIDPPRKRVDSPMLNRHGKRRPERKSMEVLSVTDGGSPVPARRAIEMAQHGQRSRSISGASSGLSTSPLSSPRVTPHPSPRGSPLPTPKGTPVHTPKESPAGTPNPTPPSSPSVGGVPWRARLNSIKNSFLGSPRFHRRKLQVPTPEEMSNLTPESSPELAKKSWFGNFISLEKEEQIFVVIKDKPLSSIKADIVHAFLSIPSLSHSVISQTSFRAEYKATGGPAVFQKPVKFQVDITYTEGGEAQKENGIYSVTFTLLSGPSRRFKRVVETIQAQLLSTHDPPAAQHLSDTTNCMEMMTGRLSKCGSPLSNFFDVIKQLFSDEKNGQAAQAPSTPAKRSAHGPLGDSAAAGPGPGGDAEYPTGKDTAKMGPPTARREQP
# [10] = biological target: Cyclin-dependent kinase 5 (Homo sapiens, UniProt Q00535); assay: Selectivity interaction (KinomeScan (DiscoverX)) EUB0000607a CDK5; settings: at 10 µM
# [11] = biological target: Non-receptor tyrosine-protein kinase TYK2 (Homo sapiens, UniProt P29597); assay: Selectivity interaction (KinomeScan (DiscoverX)) EUB0000666a TYK2; settings: at 10 µM
# Non-receptor tyrosine-protein kinase TYK2, sequence (P29597 whole entry): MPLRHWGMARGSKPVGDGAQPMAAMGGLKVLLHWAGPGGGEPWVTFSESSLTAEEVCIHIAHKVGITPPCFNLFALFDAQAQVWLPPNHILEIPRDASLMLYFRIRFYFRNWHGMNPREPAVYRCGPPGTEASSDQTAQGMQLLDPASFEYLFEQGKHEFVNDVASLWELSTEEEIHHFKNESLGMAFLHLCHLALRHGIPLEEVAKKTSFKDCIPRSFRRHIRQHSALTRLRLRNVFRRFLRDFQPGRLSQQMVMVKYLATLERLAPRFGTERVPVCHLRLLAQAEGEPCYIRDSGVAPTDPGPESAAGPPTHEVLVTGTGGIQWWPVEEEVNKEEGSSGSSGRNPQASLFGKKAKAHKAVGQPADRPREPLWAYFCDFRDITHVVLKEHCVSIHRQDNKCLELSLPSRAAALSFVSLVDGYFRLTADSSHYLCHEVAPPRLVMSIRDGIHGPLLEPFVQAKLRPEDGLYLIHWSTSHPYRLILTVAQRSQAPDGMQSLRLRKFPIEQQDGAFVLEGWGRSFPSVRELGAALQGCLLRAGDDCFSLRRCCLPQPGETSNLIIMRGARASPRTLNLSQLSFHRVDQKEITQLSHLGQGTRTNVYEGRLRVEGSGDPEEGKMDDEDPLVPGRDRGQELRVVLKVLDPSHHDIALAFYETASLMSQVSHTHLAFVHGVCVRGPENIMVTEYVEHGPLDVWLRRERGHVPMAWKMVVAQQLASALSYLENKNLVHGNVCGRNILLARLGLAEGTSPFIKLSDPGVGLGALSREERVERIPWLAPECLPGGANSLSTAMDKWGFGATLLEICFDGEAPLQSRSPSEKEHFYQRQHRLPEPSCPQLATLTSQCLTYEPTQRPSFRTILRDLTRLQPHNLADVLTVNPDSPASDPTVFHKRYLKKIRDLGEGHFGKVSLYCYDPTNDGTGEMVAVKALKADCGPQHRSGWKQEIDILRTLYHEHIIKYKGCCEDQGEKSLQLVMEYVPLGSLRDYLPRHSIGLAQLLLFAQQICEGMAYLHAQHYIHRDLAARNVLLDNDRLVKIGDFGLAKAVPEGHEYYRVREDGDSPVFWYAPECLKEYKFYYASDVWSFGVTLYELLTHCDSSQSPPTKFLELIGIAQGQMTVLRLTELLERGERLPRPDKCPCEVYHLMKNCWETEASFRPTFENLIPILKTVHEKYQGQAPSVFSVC
# Interleukin-1 receptor-associated kinase 1 (Homo sapiens), sequence (P51617 whole entry, looked up, canonical isoform): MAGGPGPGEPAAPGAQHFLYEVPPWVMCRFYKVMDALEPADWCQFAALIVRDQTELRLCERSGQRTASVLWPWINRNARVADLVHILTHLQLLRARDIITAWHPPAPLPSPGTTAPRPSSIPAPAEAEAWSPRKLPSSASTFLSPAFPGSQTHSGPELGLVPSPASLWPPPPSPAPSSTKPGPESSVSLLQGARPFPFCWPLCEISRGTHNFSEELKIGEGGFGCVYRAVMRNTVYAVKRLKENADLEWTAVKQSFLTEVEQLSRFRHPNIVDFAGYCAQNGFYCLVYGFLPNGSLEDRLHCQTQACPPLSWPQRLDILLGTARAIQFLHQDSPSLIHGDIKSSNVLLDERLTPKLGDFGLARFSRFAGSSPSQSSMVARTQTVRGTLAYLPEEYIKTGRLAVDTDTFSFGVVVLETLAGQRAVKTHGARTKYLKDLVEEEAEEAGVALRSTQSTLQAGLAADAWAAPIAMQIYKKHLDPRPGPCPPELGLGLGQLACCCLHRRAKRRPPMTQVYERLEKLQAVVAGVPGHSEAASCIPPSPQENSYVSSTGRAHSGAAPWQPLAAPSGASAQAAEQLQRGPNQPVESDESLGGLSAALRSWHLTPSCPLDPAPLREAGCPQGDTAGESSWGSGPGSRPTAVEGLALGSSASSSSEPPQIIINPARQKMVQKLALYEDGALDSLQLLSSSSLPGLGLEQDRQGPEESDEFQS
# Casein kinase I isoform delta, sequence (P48730 whole entry, looked up, canonical isoform): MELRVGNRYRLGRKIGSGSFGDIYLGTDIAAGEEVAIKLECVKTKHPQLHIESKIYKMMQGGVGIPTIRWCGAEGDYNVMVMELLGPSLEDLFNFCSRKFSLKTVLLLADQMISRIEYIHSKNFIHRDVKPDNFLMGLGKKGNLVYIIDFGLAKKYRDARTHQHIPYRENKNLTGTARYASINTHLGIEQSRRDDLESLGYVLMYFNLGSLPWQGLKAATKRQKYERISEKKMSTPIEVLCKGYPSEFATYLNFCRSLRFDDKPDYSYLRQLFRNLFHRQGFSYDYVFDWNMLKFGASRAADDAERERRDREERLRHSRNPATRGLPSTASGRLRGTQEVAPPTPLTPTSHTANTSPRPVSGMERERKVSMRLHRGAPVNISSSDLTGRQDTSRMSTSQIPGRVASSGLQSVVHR
# Phosphatidylinositol 4-phosphate 3-kinase C2 domain-containing subunit beta (Homo sapiens), sequence (O00750 whole entry, the tested form may be a part): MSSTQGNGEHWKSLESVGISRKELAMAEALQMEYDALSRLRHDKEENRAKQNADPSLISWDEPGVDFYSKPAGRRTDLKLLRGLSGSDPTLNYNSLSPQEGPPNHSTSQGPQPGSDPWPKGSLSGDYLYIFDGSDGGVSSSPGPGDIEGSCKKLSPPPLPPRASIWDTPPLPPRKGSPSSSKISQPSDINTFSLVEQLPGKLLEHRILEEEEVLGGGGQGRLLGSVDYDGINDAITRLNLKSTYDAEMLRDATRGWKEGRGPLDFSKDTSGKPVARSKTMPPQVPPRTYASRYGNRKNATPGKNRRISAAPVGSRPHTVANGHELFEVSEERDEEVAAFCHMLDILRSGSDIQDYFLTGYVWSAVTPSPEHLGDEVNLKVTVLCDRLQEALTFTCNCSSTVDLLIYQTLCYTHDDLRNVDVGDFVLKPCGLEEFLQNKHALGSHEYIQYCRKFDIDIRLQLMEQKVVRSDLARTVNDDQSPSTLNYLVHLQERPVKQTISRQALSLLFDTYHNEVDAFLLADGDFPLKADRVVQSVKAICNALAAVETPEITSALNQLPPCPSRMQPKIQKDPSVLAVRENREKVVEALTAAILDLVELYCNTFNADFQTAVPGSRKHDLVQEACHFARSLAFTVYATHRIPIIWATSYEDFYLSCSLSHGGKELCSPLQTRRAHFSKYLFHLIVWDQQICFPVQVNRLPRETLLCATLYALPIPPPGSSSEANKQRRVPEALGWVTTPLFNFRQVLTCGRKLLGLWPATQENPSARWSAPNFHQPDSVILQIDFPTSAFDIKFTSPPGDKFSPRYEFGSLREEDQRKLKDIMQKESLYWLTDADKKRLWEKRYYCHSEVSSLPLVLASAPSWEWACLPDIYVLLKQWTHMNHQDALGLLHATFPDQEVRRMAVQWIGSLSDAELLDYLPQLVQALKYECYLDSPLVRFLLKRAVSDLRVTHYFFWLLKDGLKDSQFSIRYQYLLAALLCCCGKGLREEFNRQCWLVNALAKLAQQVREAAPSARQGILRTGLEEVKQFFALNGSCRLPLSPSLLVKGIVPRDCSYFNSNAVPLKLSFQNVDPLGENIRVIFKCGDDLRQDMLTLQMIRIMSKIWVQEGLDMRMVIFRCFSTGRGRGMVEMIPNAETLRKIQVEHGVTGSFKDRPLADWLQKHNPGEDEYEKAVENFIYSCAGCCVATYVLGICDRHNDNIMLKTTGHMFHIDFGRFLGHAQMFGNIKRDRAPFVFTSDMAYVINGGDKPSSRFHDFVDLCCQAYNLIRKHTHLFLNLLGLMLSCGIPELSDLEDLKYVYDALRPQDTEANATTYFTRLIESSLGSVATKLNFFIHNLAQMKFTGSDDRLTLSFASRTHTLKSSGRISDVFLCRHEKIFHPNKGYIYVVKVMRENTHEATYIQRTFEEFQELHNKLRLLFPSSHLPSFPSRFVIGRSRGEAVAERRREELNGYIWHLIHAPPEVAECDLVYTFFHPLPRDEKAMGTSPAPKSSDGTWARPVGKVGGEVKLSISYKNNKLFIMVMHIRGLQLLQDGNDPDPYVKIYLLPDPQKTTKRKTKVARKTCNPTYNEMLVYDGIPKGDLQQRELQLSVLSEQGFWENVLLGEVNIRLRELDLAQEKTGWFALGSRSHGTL
# Cyclin-dependent kinase 5, sequence (Q00535 whole entry, looked up): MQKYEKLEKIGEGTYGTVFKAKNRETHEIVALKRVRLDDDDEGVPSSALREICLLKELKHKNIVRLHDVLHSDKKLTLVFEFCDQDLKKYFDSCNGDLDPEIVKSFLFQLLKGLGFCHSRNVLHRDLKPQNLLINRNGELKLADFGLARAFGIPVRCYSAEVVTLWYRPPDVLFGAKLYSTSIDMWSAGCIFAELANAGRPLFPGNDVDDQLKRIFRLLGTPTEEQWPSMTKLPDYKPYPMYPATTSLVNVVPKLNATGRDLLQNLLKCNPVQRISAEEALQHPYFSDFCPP
# High affinity nerve growth factor receptor, sequence (P04629 33-796 limits assumed): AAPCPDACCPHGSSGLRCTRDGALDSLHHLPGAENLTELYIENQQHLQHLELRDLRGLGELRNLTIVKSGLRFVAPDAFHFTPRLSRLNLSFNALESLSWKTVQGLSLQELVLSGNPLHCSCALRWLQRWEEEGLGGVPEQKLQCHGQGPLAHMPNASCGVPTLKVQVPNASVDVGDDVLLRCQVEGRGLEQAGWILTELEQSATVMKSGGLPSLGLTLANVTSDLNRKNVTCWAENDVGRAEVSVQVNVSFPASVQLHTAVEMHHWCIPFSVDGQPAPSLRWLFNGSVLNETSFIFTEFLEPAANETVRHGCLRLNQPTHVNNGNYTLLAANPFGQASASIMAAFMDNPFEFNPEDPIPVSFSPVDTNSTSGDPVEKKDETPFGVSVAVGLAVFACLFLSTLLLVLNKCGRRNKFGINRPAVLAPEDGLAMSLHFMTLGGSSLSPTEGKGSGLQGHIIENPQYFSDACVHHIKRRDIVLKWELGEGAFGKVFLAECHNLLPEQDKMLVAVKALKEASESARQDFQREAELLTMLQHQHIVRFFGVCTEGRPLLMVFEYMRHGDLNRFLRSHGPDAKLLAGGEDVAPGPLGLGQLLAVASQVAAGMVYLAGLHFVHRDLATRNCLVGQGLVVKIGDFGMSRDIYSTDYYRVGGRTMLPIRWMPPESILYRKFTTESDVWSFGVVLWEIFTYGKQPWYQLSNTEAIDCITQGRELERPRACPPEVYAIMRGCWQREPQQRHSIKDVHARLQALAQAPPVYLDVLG
smiles,measurement,setting,value
COc1cc(Nc2nc(C)cc(-c3cnn4nc(OC)ccc34)n2)cc(C(F)(F)F)c1,% of control,[1],78%
CN(C)C/C=C/C(=O)Nc1ccc(C(=O)N2CCCC(Nc3ncc(Cl)c(-c4c[nH]c5ccccc45)n3)C2)cc1 (stereo not drawn),% of control,[2],99%
CC[C@@H]1[C@H](F)C(=O)N[C@@H]1COc1nccc2cc(C(N)=O)c(OC)cc12 [ZIMLOVISERTIB],% of inhibition,[3],-42.6%
COCC(=O)NC/C=C/c1ccc2ncnc(Nc3ccc(Oc4ccc(C)nc4)c(C)c3)c2c1 [CP-724714],% of control,[4],88%
COc1cc(N(C)c2ccnc3ccc(C(F)(F)F)cc23)cc(OC)c1OC,% binding,[5],96%
Nc1cnc(N2CCc3cc(S(=O)(=O)Nc4c(F)cc(Cl)cc4F)cc(N4CCCC4=O)c32)nc1 [TP-020n],% of control,[6],100%
C=CC(=O)Nc1cccc(C(=O)Nc2ccc(Nc3cc(-c4[nH]c(SC)nc4C)ccn3)cc2)c1,% of control,[7]; at 1 µM,50%
same,% of control,[7]; at 5 µM,11%
C=CC(=O)Nc1cc(-n2c(=O)ccc3cnc4ccc(-c5ccc(NS(C)(=O)=O)cc5)cc4c32)ccc1C,% of control,[8]; at 1 µM,84%
same,% of control,[8]; at 10 µM,90%
CNC(=O)Nc1ccc(-c2nc(N3CC4CCC(C3)O4)c3cnn(C4CCC5(CC4)OCCO5)c3n2)cc1,% of control,[9],100%
same,% of control,[10],88%
O=C(NOC[C@H](O)CO)c1ccc(F)c(F)c1Nc1ccc(I)cc1F,% of control,[11],100%
